Experiments:
FLT3 = FLT3 (Homo sapiens, UniProt P36888); assay: HTRF Transcreener ADP kinase assay; type: biochemical
Procedure: (§1) MAP4K4 kinase activity was monitored using the CisBio HTRF Transcreener ADP assay, a competitive immunoassay with a reproducible Z’ > 0.6. In the detection step, endogenous ADP and d2-labeled ADP compete for binding an anti-ADP monoclonal antibody labeled with Eu^3+ cryptate. A ratiometric fluorescent readout is used at 665 and 620 nm. […] Assays were run in Greiner low volume plates with a final reaction volume of 10 μl. Percent inhibition was calculated from 100% activity of MAP4K4 (DMSO only) and 0% activity (no enzyme added). Data were either reported as % inhibition at a single dose or as pIC50 values derived from dose response curves (pIC50 = -log[IC50]).
(§2) Kinase selectivity profiling was performed by the International Centre for Kinase Profiling, MRC Protein Phosphorylation and Ubiquitylation Unit (141 kinases; Premier Screen, http://www.kinase-screen.mrc.ac.uk), using a [γ-^33P]ATP filter binding assay ([Bain et al., 2007]). Compounds were screened at 1 μM. For key hits, pIC50 values were then determined by HTRF as above. More complete kinome profiling was performed by Reaction Biology (376 kinases). Stability in mouse and human liver microsomes was determined by Cyprotex.

GLK/MAP4K3 = biological target: T1, GLK/MAP4K3 (Homo sapiens, UniProt Q8IVH8); assay: HTRF Transcreener ADP kinase assay; type: biochemical; conditions: for IC50: HTRF Transcreener ADP assay
T1 sequence (Q8IVH8 1-894): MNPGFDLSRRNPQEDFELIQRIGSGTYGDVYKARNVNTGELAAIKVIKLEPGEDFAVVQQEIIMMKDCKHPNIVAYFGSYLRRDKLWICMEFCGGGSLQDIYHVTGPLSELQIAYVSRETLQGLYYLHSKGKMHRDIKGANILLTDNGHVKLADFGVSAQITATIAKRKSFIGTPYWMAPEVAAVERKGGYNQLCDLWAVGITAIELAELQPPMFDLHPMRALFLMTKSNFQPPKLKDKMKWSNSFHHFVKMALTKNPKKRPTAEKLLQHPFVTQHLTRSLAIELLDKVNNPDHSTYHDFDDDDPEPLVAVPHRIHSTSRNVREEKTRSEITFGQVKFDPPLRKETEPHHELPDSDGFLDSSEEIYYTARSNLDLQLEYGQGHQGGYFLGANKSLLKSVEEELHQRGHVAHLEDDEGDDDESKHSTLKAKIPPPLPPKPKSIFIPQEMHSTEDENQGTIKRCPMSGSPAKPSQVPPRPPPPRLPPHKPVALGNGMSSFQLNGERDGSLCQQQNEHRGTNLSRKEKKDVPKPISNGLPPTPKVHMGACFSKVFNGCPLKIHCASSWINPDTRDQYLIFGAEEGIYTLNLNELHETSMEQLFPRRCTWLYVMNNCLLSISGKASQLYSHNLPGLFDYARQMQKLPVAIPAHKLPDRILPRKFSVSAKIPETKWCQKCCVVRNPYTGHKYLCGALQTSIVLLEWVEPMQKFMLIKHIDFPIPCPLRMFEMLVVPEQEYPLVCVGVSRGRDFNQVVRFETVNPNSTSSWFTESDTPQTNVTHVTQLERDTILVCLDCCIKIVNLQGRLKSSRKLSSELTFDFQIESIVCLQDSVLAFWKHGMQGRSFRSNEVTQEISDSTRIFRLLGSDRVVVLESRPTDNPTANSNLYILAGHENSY
Procedure: as §1, §2

MLK3/MAP3K11 = MLK3/MAP3K11 (Homo sapiens, UniProt Q16584); assay: HTRF Transcreener ADP kinase assay; type: biochemical; conditions: for IC50: HTRF Transcreener ADP assay
MLK3/MAP3K11, sequence (Q16584 whole entry): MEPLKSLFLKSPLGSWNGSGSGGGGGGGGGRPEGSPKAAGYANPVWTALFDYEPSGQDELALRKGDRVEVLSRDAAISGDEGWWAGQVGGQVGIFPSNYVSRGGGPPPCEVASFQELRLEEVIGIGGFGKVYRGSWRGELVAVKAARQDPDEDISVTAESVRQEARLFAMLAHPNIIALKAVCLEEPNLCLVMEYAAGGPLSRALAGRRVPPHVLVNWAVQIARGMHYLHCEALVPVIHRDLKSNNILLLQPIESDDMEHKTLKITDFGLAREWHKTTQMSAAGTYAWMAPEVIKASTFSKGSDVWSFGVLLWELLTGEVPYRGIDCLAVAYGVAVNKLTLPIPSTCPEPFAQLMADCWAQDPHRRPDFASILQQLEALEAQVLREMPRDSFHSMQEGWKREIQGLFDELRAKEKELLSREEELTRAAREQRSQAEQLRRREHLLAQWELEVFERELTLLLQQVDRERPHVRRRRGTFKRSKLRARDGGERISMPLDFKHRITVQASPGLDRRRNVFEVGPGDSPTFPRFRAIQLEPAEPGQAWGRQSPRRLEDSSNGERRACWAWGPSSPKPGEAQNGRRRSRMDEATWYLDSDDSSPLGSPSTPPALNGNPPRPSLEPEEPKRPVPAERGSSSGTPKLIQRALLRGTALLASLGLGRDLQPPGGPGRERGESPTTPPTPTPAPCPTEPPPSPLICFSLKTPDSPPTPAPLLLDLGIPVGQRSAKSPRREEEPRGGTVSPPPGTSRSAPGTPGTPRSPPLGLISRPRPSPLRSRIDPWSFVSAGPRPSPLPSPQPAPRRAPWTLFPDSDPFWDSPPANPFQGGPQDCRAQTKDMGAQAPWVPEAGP
Procedure: as §1, §2

vCor.4U cardiomyocytes [1] = assay: CellTiter-Glo viability after oxidative stress (H2O2 or menadione); type: cell-based, human; conditions: for protection from death signal (CellTiter-Glo): vCor.4U, 10 μM compound, up to 200 μM H2O2 or 45 μM menadione
Procedure: vCor.4U cardiomyocytes were cultured, except where noted, on white (viability) or black (FLIPR) clear-bottom 384-well plates, treated for 1 hr with […] fibronectin (Sigma-Aldrich). To minimize batch to batch variation, thawed cells first were transferred from cryo-vials into sterile 250 mL flasks containing pre-warmed vCor.4U maintenance medium, for 3-5 d. The cells were then plated at 1000 well^-1 for viability assays or 5000 cells well^-1 for FLIPR experiments, all in 40 μl well^-1 of the maintenance medium. Cells were cultured in Axiogenesis complete medium followed by incomplete medium, were subjected to oxidative stress ± test compounds on day 3, and were assayed on day 4 (Figures 4D and 4E). Alternatively, complete medium was replaced on day 2 of culture with 40 μl of DMEM high Glucose (no FCS or pyruvate), followed by removal and replacement of 20 μl every 2 d for 10 d (Figures 4A–4C).
H2O2, menadione (Sigma-Aldrich), doxorubicin (Calbiochem), and C2-ceramide (N-acetyl-D-sphingosine) were used at the indicated concentrations. MAP4K4 inhibitors were serially diluted in DMSO, transferred to an intermediate plate using assay medium as a diluting agent, and added at a final concentration of 0.1% DMSO. MAP4K4 inhibitors were added to cultured cardiomyocytes 1 hr before the cell death inducers, except where noted, and remained present for the duration of the experiment.
(§3) For cell-based dose-response experiments, MAP4K4 inhibitors were prepared in 96-well polypropylene plates as serial dilutions in DMSO of 10 mM stock solutions. To a sterile 96-well intermediate plate, 1 μl of each well was added to 99 μl of medium, the samples were mixed, and 5 μl well^-1 from the intermediate plate were transferred to the cultured cells (final concentration, 0.1% DMSO; final top concentration of inhibitor, 10 μM). Assay plates were gently centrifuged then incubated for 1 hr at 37°C. The death triggers menadione, H2O2 and doxorubicin were prepared fresh on the day of treatment at 10x the final concentrations and 5 μl well^-1 were added as appropriate. Assay plates were gently centrifuged and then incubated at 37°C for the duration of treatment.
Assay plates were removed from the incubator, allowed to reach room temperature, inoculated with 20 μl well^-1 CTG reagent (Promega), and gently agitated for 30 min. Prior to adding CTG, 2 μl well^-1 of the culture medium was removed and placed into a white 384-well low volume plate for measurement of cardiac troponin release by AlphaLISA (below). Luminescence due to ATP, proportional to cell number, was captured on a PHERAstar Plus microplate reader (BMG Labtech). Normalized values were plotted against the log concentration of death signal or inhibitor, and a 4-parameter fit was used to identify IC50 and EC50, respectively.

vCor.4U cardiomyocytes [2] = assay: Human cardiac troponin I release (AlphaLISA) after oxidative stress; type: cell-based; conditions: 10 μM compound, up to 200 μM H2O2 or 45 μM menadione
Procedure: as §3
Aliquots of medium collected after cells’ treatment with death signals and MAP4K4 inhibitors were incubated at room temperature with AlphaLISA human cardiac troponin I detection reagents (PerkinElmer): sequentially, anti-Troponin I acceptor beads for 1 hr, biotinylated antibody to troponin I for 1hr, and streptavidin (SA)-coated donor beads for 30 min. The AlphaLISA signal was acquired using the Pherastar Plus plate reader. All detection reagents were diluted in 1X AlphaLISA Immunoassay Buffer and a serially diluted analyte standard was used to quantitate the concentration of human cardiac troponin I (pg ml^-1).

FLT3, sequence (P36888 27-993): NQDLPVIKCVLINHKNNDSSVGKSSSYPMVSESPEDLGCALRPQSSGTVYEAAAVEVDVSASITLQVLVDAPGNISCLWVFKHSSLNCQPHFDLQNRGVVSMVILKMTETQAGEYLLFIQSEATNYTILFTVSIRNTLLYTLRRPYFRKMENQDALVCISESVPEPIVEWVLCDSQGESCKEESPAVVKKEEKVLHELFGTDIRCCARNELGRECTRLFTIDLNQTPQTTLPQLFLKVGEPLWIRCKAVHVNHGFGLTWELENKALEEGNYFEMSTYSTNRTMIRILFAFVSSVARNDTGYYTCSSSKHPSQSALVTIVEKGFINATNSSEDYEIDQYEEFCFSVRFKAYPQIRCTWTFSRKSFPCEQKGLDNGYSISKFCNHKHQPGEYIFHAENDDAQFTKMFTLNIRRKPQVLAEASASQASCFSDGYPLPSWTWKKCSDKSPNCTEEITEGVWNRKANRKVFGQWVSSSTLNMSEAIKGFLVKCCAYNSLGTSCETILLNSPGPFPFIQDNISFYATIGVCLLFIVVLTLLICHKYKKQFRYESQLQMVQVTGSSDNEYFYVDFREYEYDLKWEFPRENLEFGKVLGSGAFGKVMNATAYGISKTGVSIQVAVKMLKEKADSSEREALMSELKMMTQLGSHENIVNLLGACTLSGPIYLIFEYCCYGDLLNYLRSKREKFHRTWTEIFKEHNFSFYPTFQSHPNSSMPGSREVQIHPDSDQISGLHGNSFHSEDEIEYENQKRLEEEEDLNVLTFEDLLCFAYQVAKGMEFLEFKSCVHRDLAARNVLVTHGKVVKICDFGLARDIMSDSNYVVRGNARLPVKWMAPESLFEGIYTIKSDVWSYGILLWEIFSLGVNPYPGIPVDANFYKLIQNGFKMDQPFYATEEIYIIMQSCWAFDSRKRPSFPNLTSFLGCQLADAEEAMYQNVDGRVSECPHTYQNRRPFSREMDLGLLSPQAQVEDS

| SMILES | DMX-5804 vs F1386-0303 (FLT3; ratio of fold selectivity) | IC50 (GLK/MAP4K3; GLK/MAP4K3) | Fold Selectivity (GLK/MAP4K3; GLK/MAP4K3 versus MAP4K4) | DMX-5804 vs F1386-0303 (GLK/MAP4K3; ratio of fold selectivity, GLK/MAP4K3) | IC50 (MLK3/MAP3K11; MLK3/MAP3K11) | Fold Selectivity (MLK3/MAP3K11; MLK3/MAP3K11 versus MAP4K4) | DMX-5804 vs F1386-0303 (MLK3/MAP3K11; ratio of fold selectivity, MLK3/MAP3K11) | protection if given 1 h after oxidative stress (vCor.4U cardiomyocytes [1]; 400 μM H2O2, CellTiter-Glo) | protection from death signal (CellTiter-Glo) (vCor.4U cardiomyocytes [1]) | protection from death signal (human cardiac troponin release) (vCor.4U cardiomyocytes [2]) | IC50 (FLT3; HTRF Transcreener ADP assay) |
| --- | --- | --- | --- | --- | --- | --- | --- | --- | --- | --- | --- |
| COCCOc1ccc(-c2cn(-c3ccccc3)c3nc[nH]c(=O)c23)cc1 [DMX-5804, 5-[4-(2-methoxy-ethoxy)-phenyl]-7-phenyl-3,7-dihydro-pyrrolo[2,3-d]pyrimidin-4-one] | 18.22 | 11.2 µM | 3981 | 4.57 | 0.102 µM | 36 | 1.57 | partial protection | substantiated | substantiated |  |
| Oc1ncnc2c1c(-c1ccccc1)cn2-c1ccccc1 [F1386-0303, 5,7-diphenyl-7H-pyrrolo[2,3-d]pyrimidin-4-ol] |  | 30.2 µM |  |  | 0.813 µM |  |  |  | virtually complete | virtually complete | 2.19 µM |

Reference: article PMC6458995, “MAP4K4 Inhibition Promotes Survival of Human Stem Cell-Derived Cardiomyocytes and Reduces Infarct Size In Vivo” (Cell Stem Cell, 2019)
